Measured values reported in ChEMBL document CHEMBL5303304, “EUbOPEN Chemogenomics Library - IncuCyte” (2023).

How the values were obtained:
Type in all cases: toxicity, cell-based
[1] = system: HEK-293T; assay: Incucyte cell viability with HEK293T; settings: human, 10 µM, compound concentration 10 uM
[2] = system: Fibroblast; assay: Incucyte cell viability with human fibroblast; settings: 10 µM, compound concentration 10 uM
[3] = system: U2OS; assay: Incucyte cell viability with U2OS; settings: human, 10 µM, compound concentration 10 uM
Also: unitless GR value; below 1 slowed growth and below 0 cell loss.

Row | SMILES | Growth Rate ([1]; 6 h, replicate number 1) | Growth Rate ([1]; 18 h, replicate number 2) | Growth Rate ([2]; 0 h, replicate number 1) | Growth Rate ([2]; 0 h, replicate number 2) | Growth Rate ([2]; 6 h, replicate number 2) | Growth Rate ([2]; 12 h, replicate number 1) | Growth Rate ([2]; 12 h, replicate number 2) | Growth Rate ([2]; 18 h, replicate number 1) | Growth Rate ([3]; 0 h, replicate number 1) | Growth Rate ([3]; 12 h, replicate number 2) | Growth Rate ([3]; 24 h, replicate number 1) | Growth Rate ([3]; 24 h, replicate number 2) | Growth Rate ([1]; 6 h, replicate number 2) | Growth Rate ([1]; 12 h, replicate number 1) | Growth Rate ([1]; 12 h, replicate number 2) | Growth Rate ([1]; 18 h, replicate number 1) | Growth Rate ([3]; 12 h, replicate number 1) | Growth Rate ([1]; 24 h, replicate number 1) | Growth Rate ([1]; 24 h, replicate number 2) | Growth Rate ([3]; 18 h, replicate number 2) | also measured
1 | COc1ccc(-c2coc3cc(O)cc(O)c3c2=O)cc1 [BIOCHANIN] | 0.75 | 1 | 0.87 | -0.65 | 0.58 | -0.08 | 0.69 | 0.21 | 0.85 | 0.77 | 0.95 | 0.93 |  |  |  |  |  |  |  |  | Growth Rate ([1]; 0 h, replicate number 2): 0.93; Growth Rate ([2]; 24 h, replicate number 2): 0.94; Growth Rate ([3]; 0 h, replicate number 2): -0.91; Growth Rate ([3]; 6 h, replicate number 1): 1
2 | CC[C@H](NC(=O)[C@H](C)NC)C(=O)N1C[C@@H](O)C[C@H]1Cc1c(-c2[nH]c3cc(F)ccc3c2C[C@@H]2C[C@H](O)CN2C(=O)[C@H](CC)NC(=O)[C@H](C)NC)[nH]c2cc(F)ccc12 [BIRINAPANT] | 0.67 |  | -0.44 | -0.61 |  |  |  |  | 0.94 |  |  |  | 0.87 | 0.62 | 0.97 | 0.9 | 0.81 |  |  |  | Growth Rate ([3]; 18 h, replicate number 1): 0.98
3 | CC(C)(c1ccc(O)cc1)c1ccc(O)cc1 [BISPHENOL A] | 0.82 |  |  |  | -0.05 | 0.37 | 0.83 |  |  | 1 |  | 0.96 |  |  |  |  |  |  |  |  | Growth Rate ([2]; 18 h, replicate number 2): 0.7; Growth Rate ([2]; 24 h, replicate number 1): 0.57
4 | CC(C)(C)c1cnc(CSc2cnc(NC(=O)C3CCNCC3)s2)o1 [BMS-387032] | -0.41 | -0.48 | -1 | -0.8 | -0.1 | 0.11 | -0.28 | 0.32 | -1 | 0.05 | 0.05 | -0.1 | -0.76 | -0.29 | -0.64 | -0.21 | 0.45 | -0.2 | -0.37 | 0.04 | Growth Rate ([2]; 6 h, replicate number 1): 0.49; Growth Rate ([2]; 18 h, replicate number 2): -0.23; Growth Rate ([2]; 24 h, replicate number 1): 0.23; Growth Rate ([2]; 24 h, replicate number 2): -0.26; Growth Rate ([3]; 0 h, replicate number 2): 0.54; Growth Rate ([3]; 6 h, replicate number 1): 0.69; Growth Rate ([3]; 6 h, replicate number 2): 0.29; Growth Rate ([3]; 18 h, replicate number 1): 0.27
5 | CC(C)(O)c1cn(-c2ccc(-c3cccc(S(C)(=O)=O)c3)cc2)c(C(C)(C)c2ccccc2Cl)n1 [BMS-779788] |  | 0.87 |  |  | 0.64 | 0.66 | 0.55 | 0.36 |  | 0.79 |  | 0.7 | 0.58 | 0.97 | 0.93 | 0.81 |  | 0.9 | 0.92 | 0.76 | Growth Rate ([1]; 0 h, replicate number 1): -0.7; Growth Rate ([2]; 6 h, replicate number 1): -0.03; Growth Rate ([2]; 18 h, replicate number 2): 0.78; Growth Rate ([2]; 24 h, replicate number 1): 0.75; Growth Rate ([2]; 24 h, replicate number 2): 0.63; Growth Rate ([3]; 0 h, replicate number 2): 0.31; Growth Rate ([3]; 6 h, replicate number 2): 0.61
6 | NS(=O)(=O)c1cncc(-c2nc(NCc3ccccn3)c3c(-c4ccccc4)cccc3n2)c1 [BMS-919373] | 0.01 | 0.22 |  | -0.92 |  | -1 |  | 0.34 | 0.72 | 0.71 |  | 0.63 | 0.33 | 0.64 | 0.24 | 0.69 | 0.98 | 1 | 0.26 | 0.59 | Growth Rate ([3]; 0 h, replicate number 2): -0.7
7 | Cc1c(-c2c(F)cc(C(N)=O)c3[nH]c4c(c23)CC[C@H](C(C)(C)O)C4)cccc1-n1c(=O)c2cccc(F)c2n(C)c1=O [BMS-986142] | -0.93 | -0.59 | -1 |  | -0.9 | 0.08 | 0.19 | 0.54 | 0.59 | 0.67 | 0.49 | 0.73 | -0.99 | -0.7 | -0.83 | -0.43 | 0.52 | -0.25 | -0.39 | 0.66 | Growth Rate ([2]; 6 h, replicate number 1): -0.27; Growth Rate ([2]; 18 h, replicate number 2): 0.73; Growth Rate ([2]; 24 h, replicate number 1): 0.8; Growth Rate ([2]; 24 h, replicate number 2): 1; Growth Rate ([3]; 0 h, replicate number 2): 0.95; Growth Rate ([3]; 6 h, replicate number 1): 0.26; Growth Rate ([3]; 6 h, replicate number 2): 0.48; Growth Rate ([3]; 18 h, replicate number 1): 0.59
8 | O=C(N[C@@H]1C2CCN(CC2)[C@H]1Cc1cccnc1)c1cc2ccccc2o1 [BRADANICLINE] |  | 0.96 |  | -0.99 |  | -0.73 |  | 0.35 |  | 0.78 | 0.93 | 0.96 |  |  |  |  |  | 0.96 |  | 0.99 | Growth Rate ([1]; 0 h, replicate number 1): 0.69; Growth Rate ([1]; 0 h, replicate number 2): 0.79; Growth Rate ([2]; 24 h, replicate number 1): 0.82; Growth Rate ([3]; 6 h, replicate number 2): 0.66
9 | Nc1c(CC(=O)O)cccc1C(=O)c1ccc(Br)cc1 [BROMFENAC] |  |  |  | -0.66 |  |  |  |  | 0.27 | 0.95 | 0.74 | 0.95 |  |  |  |  | 0.79 | 0.98 |  | 0.92 | Growth Rate ([1]; 0 h, replicate number 1): 0.43; Growth Rate ([1]; 0 h, replicate number 2): -0.53; Growth Rate ([3]; 6 h, replicate number 1): 0.2; Growth Rate ([3]; 18 h, replicate number 1): 0.86
10 | Cn1ncc(-c2nc(N[C@H]3CC[C@H](N)CC3)ncc2Cl)c1CC1CC1 [BTX-A51] |  |  | -0.32 | -0.85 |  |  |  |  |  |  |  | 0.74 |  |  |  |  |  | 0.57 | 0.67 | 0.89 | Growth Rate ([1]; 0 h, replicate number 1): -0.79
11 | C=C1/C(=C\C=C2/CCC[C@]3(C)[C@@H]([C@H](C)CCCC(C)(C)O)CC[C@@H]23)C[C@@H](O)C[C@@H]1O [CALCITRIOL] | 0.8 | 0.67 |  |  | 0.1 | 0.49 | 0.64 | 0.64 | -0.07 | 0.63 | 0.91 | 0.67 | 0.4 | 0.61 | 0.7 | 0.44 | -0.16 | 0.53 | 0.55 | 0.67 | Growth Rate ([1]; 0 h, replicate number 2): -0.91; Growth Rate ([2]; 6 h, replicate number 1): 0.62; Growth Rate ([2]; 24 h, replicate number 1): 0.96; Growth Rate ([3]; 0 h, replicate number 2): 0.74; Growth Rate ([3]; 6 h, replicate number 1): 0.27; Growth Rate ([3]; 6 h, replicate number 2): 0.45; Growth Rate ([3]; 18 h, replicate number 1): 0.83
12 | Oc1cc2c(cc1O)CN(C(=S)NCCc1ccc(Cl)cc1)CCC2 [CAPSAZEPINE] | -0.22 | 0.51 |  | -0.78 | -0.98 |  | -0.04 | -0.47 |  | 0.84 | 0.77 | 0.93 | -0.37 | 0.04 | 0.11 | 0.54 | 0.86 |  | 0.55 | 0.75 | Growth Rate ([2]; 18 h, replicate number 2): 0.44; Growth Rate ([2]; 24 h, replicate number 2): 0.57; Growth Rate ([3]; 0 h, replicate number 2): -0.38; Growth Rate ([3]; 6 h, replicate number 2): 0.57; Growth Rate ([3]; 18 h, replicate number 1): 0.88
13 | COC[C@H](O)Cn1c(=O)cnn(-c2ccc(Cl)c(C(=O)NCC3(O)CCCCCC3)c2)c1=O [CE-224535] | 0.55 |  | -0.26 | -1 |  | -1 |  | -0.48 | -0.6 |  |  |  |  |  |  |  |  |  |  |  | Growth Rate ([1]; 0 h, replicate number 2): 0.38
14 | Cc1cc(Nc2ncc(Cl)c(Nc3ccccc3S(=O)(=O)C(C)C)n2)c(OC(C)C)cc1C1CCNCC1 [CERITINIB] | -0.91 | -0.35 | -0.31 |  | -1 | -1 | -0.99 | -0.92 | 0.45 | -0.82 | -0.57 | -0.61 | -0.87 | -0.6 | -0.49 | -0.4 | -0.79 | -0.33 | -0.26 | -0.68 | Growth Rate ([2]; 18 h, replicate number 2): -0.93; Growth Rate ([2]; 24 h, replicate number 1): -0.63; Growth Rate ([2]; 24 h, replicate number 2): -0.84; Growth Rate ([3]; 6 h, replicate number 1): -0.98; Growth Rate ([3]; 6 h, replicate number 2): -0.96; Growth Rate ([3]; 18 h, replicate number 1): -0.64
